According to paper PMC5651845, “A New Generation of Arachidonic Acid Analogues as Potential Neurological Agent Targeting Cytosolic Phospholipase A2” (Scientific Reports, 2017):

Tests used:
[1] = Aqueous solubility (Multiscreen Solubility filter plates); format: physicochemical; settings: aqueous buffer, kinetic from dmso stock; pH 7.4, 24 h, 25 °C
Description: Solubility determinations were carried out on Multiscreen® Solubility filter plates (Millipore-MSSLBPC10) from Millipore Corporation (MA, USA) following the protocol (PC2445EN00) from the manufacturer.

[2] = tested on: iNOS expression in BV-2 cells; test: iNOS protein expression (western blot) in LPS-stimulated BV-2 cells; format: cell-based, murine; settings: 2 μg/mL LPS, 14 h
From the text: It is well-established that reactive oxygen species (ROS) and nitric oxide (NO), produced during microglia activation, contribute to inflammatory response and cytotoxic damage to the surrounding neurons and neighbouring cells. Recent studies have shown that BV-2 microglial cell could serve as an in vitro model to mimic such neuroinflammatory states when stimulated with lipopolysaccharide (LPS)[49]. LPS activates BV-2 cells by triggering a cascade of inflammatory events which includes the production of NO. This event is characterized by the generation of the biomarker, inducible nitric oxide synthase (iNOS), as well as ROS. Chuang et al.[50] have also shown that cPLA2 is a major contributor in this pathway and inhibiting this enzyme reduces the production of the neurotoxic mediators and provide neuroprotective effects. Therefore to investigate the ability of 2i in inhibiting cPLA2 in a neuroinflammatory model, BV-2 cells were treated with LPS (2 μg/mL), incubated for different time points, collected and lysed for protein extraction. […] The cPLA2 level was also determined and found to be largely constant throughout the entire activation process with a slight drop at the 24 h timepoint (Fig. 3F). Next, 2i (1, 10 and 20 μM) were incubated together with LPS in the BV-2 cells for 14 h (Fig. 4A,B). […]

HEK293T cells = test: MTS cell proliferation assay on HEK293T cells; format: cell-based, human; settings: 10 μM, 48 h and 72 h, vs vehicle control
Description: To explore whether the inhibitors are cytotoxic, MTS assay were conducted on BV-2 cells, a murine microglial cell line derived from post-natal mouse cerebella, and HEK293T cells that are derived from human embryonic kidney. Both cell types were treated with 10 μM of 1a, 2g and 2i for 48 h and 72 h (Fig. 3A,B). Dimethyl sulfoxide (DMSO) vehicle control was also included as the compounds were dissolved in DMSO.
Cells were plated on a 96-wells plate and grown for 24 h to a density of 8000 cells per well for both HEK293T and BV-2 cells. Cells were cultured at 37 °C under a 5% CO2 environment in 100 μL of culture medium. Thereafter, the compound of interest dissolved in culture medium at a concentration of 10 μM was replaced into each well. DMSO was added as vehicle in the control group. 3 biological replicates were performed. The plates were then incubated at 37 °C with 5% CO2 for 48 h and 72 h. At each individual time point, 20 μL of CellTiter 96® AQueous One Solution (MTS reagent) was added into each well and re-incubated at 37 °C with 5% CO2 without light for 3 h. Colorimetric readings were taken using a Varioskan plate reader at 490 nm and analyzed. Three independent biological repeats with four technical replicates were performed.

Question: For `CCCCC/C=C\C/C=C\C/C=C\C/C=C\CCCCC(=O)Nc1cccc(C(=O)O)c1` [2i], which solubility at 24 h [1] is on record?
Answer: > 100 µM

Question: What about the “reduction of LPS-induced iNOS expression” value ([2]; 20 µM) of the same molecule?
Answer: 50%

Question: What about the “iNOS level, concentration dependence” value ([2]; 1–20 μM) of the same molecule?
Answer: dose-dependent decrease in the iNOS level

Question: And the “cytotoxicity (MTS) on HEK293T cells” value (HEK293T cells)?
Answer: no significant toxic effects
